Results: PubChem BioAssay (NCI)
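Assay format: 96-well plates, 48-hour exposure. GI50 marks 50% less growth. TGI: total growth inhibition.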

Columns and labels:
Assay in all cases: inhibition of tumour cell growth, NCI panel, 48 h
[1] = system: NCI-H226 lung
[2] = system: A498 renal
[3] = system: UACC-257 melanoma
[4] = system: SK-MEL-28 melanoma
[5] = system: SNB-75 CNS
[6] = system: HCC-2998 colon
[7] = system: SNB-19 CNS
[8] = system: NCI-H460 lung
[9] = system: CCRF-CEM leukemia
[10] = system: OVCAR-4 ovarian
[11] = system: SF-268 CNS
[12] = system: MDA-MB-231 breast
[13] = system: OVCAR-3 ovarian
[14] = system: MCF7 breast
[15] = system: MALME-3M melanoma
[16] = system: CAKI-1 renal
[17] = system: HOP-62 NSCLC
[18] = system: LOX IMVI melanoma
[19] = system: HCT-116 colon
[20] = system: A549 NSCLC
[21] = system: RXF 393 renal
[22] = system: IGROV1 ovarian
[23] = system: HOP-92 NSCLC
[24] = system: SK-MEL-5 melanoma
[25] = system: NCI-H522 lung
[26] = system: SF-539 CNS
[27] = system: OVCAR-8 ovarian
[28] = system: DU-145 prostate
[29] = system: 786-0 renal

Structure (SMILES): Cc1cc(NC(=O)NCCCOc2ccc(N3C(N)=NC(N)=NC3(C)C)cc2Cl)ccc1S(=O)(=O)F
- GI50 [1]: 12.6 µM
- TGI [1]: > 100 µM
- GI50 [2]: 7.94 µM
- TGI [2]: 99.9 µM
- GI50 [3]: 4.09 µM
- TGI [3]: 30.9 µM
- GI50 [4]: 1930 nM
- TGI [4]: 28.5 µM
- GI50 [5]: 1200 nM
- TGI [5]: 24.4 µM
- GI50 [6]: 2060 nM
- TGI [6]: > 69.2 µM
- GI50 [7]: 920 nM
- TGI [7]: > 54.7 µM
- GI50 [8]: 259 nM
- TGI [8]: 14.7 µM
- GI50 [9]: 561 nM
- TGI [9]: > 63.5 µM
- GI50 [10]: 2340 nM
- TGI [10]: > 100 µM
- GI50 [11]: 569 nM
- TGI [11]: > 58.9 µM
- GI50 [12]: 7.16 µM
- TGI [12]: > 100 µM
- GI50 [13]: 2790 nM
- TGI [13]: > 53.9 µM
- GI50 [14]: 614 nM
- TGI [14]: 22.5 µM
- GI50 [15]: 1840 nM
- TGI [15]: 25.4 µM
- GI50 [16]: > 63.7 µM
- TGI [16]: > 100 µM
- GI50 [17]: 2240 nM
- TGI [17]: 19.6 µM
- GI50 [18]: 479 nM
- TGI [18]: > 100 µM
- GI50 [19]: 370 nM
- TGI [19]: > 100 µM
- GI50 [20]: 412 nM
- TGI [20]: > 100 µM
- GI50 [21]: 13.5 µM
- TGI [21]: > 100 µM
- GI50 [22]: 332 nM
- TGI [22]: > 68.8 µM
- GI50 [23]: 2850 nM
- TGI [23]: 45.6 µM
- GI50 [24]: 492 nM
- TGI [24]: 11.1 µM
- GI50 [25]: 1110 nM
- TGI [25]: 25.2 µM
- GI50 [26]: 2850 nM
- TGI [26]: 31.7 µM
- GI50 [27]: 2520 nM
- TGI [27]: > 100 µM
- GI50 [28]: 786 nM
- TGI [28]: > 62.4 µM
- GI50 [29]: 2460 nM
- TGI [29]: > 100 µM
